Assay results published in publication PMC10850047, “Exploring the impact of PEGylation on pharmacokinetics: a size-dependent effect of polyethylene glycol on prostate-specific membrane antigen inhibitors” (EJNMMI Research, 2024).
Read-outs that look alike come from different tables or passages of the source.

What was measured:
PC3-PIP tumors [1] = experiment: Micro-SPECT/CT imaging of 177Lu-labeled ligands in PC3-PIP tumor model; format: in vivo; details: balb/c-nu mice, scans 1-168 h
Procedure: (§1) To perform imaging studies, the male mice bearing LNCaP tumors were injected with the corresponding radioligand (~ 2.5 MBq; 100 μL) via their tail veins. The micro-PET/CT scans (Inveon PET, Siemens) were conducted at 10, 30, 60, and 120 min after injection. The mice were anesthetized and maintained under 2% isoflurane in oxygen at a flow rate of 2 L/min during the 2-h imaging study. First, a 10 min static PET imaging acquisition was carried out, followed by a 10 min CT scan for localization and attenuation correction. Data analysis was performed using Inveon Research Workplace software. For PC3-PIP tumor model, the imaging studies were performed with micro-PET/SPECT/CT (Inliview-3000B, Novel Medical). Data analysis was performed using Nmsoft-Al ws v1.7–1 software.
Balb/c-nu mice carrying PC3-PIP tumors were chosen for the micro-SPECT/CT imaging investigation of [^177Lu]Lu-PP4-WD and [^177Lu]Lu-PP8-WD (see Additional file 1: Figure S8).

PSMA = biological target: T1, PSMA (Homo sapiens, UniProt Q04609); experiment: Competitive cell binding assay against [68Ga]Ga-PSMA-11 on LNCaP cells; details: competition with [68Ga]Ga-PSMA-11, natGa-labeled standards, 1 h 37 °C
T1 construct: host or cells: LNCaP
T1 sequence (Q04609 whole entry): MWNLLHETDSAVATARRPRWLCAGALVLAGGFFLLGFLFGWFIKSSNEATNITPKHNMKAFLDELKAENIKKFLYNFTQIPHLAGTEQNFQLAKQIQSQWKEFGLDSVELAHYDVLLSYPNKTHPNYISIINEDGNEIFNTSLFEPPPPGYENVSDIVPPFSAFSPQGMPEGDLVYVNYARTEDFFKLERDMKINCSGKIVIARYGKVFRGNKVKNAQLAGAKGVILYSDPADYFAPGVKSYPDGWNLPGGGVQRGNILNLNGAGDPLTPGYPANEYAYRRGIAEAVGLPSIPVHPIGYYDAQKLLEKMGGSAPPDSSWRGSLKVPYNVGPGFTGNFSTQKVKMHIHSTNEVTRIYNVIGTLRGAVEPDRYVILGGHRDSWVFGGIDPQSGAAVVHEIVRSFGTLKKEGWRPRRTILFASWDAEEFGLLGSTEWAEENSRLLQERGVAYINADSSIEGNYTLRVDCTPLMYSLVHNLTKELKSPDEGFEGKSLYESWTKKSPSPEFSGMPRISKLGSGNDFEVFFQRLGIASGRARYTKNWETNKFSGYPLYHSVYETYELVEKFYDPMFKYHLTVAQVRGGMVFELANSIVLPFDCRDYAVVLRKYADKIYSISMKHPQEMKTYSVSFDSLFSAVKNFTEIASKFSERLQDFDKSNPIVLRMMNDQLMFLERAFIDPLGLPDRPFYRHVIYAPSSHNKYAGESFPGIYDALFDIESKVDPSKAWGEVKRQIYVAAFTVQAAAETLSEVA
Procedure: LNCaP prostate cancer cell line obtained from the American Type Culture Collection (ATCC, Manassas, VA) was used for cell affinity studies. The cells were grown in a meilunbio RPMI 1640 medium (ATCC modified) supplemented with 10% fetal bovine serum and 1% streptomycin/penicillin (Thermo Fisher Scientific, USA) at 37 °C in a humidified 5% CO2 atmosphere. Two days (48 ± 2 h) prior to in vitro experiments, the cells were harvested using trypsin-ethylenediaminetetraacetic acid (EDTA; 0.25% trypsin, 0.02% EDTA) in PBS and centrifuged. The supernatant was disposed, and the cell pellet was resuspended in a culture medium, and LNCaP cells (150,000 cells/well) were counted with a hemocytometer and seeded in poly-L-lysine-coated 24-well plates used in cell binding studies. The cells were then allowed to grow at 37 °C for 48 h. PC3-PIP cells provided by Professor Xiaoyuan Chen (Singapore) require additional Puromycin (2 µg/ml) in addition to the appealed culture conditions. Detailed information regarding uptake and internalization experiments can be found in the previous report.
In order to determine the binding affinity, a competitive cell binding assay was performed. […] The total radioactivity in each well was measured with a gamma counter. […]

[2] = Radiochemical stability in PBS at 37 °C; format: physicochemical; details: 2 h
Procedure: (§2) The radiochemical purity of samples incubated in PBS at each time point was determined using RP-HPLC. For the samples in human serum, a pretreatment step was applied. Briefly, the human serum samples underwent precipitation with acetonitrile, and the radiochemical purity of each supernatant aliquot was determined using RP-HPLC after centrifugation for 5 min at 10,000 rpm. The experiments were performed in triplicate.

[3] = Radiochemical stability in human serum at 37 °C; format: in vitro ADME; details: 2 h
Procedure: as §2

LNCaP cells = experiment: Uptake and internalization in LNCaP cells; format: cell-based, human; details: 120 min incubation, normalized to 10^6 cells
Procedure: LNCaP prostate cancer cell line obtained from the American Type Culture Collection (ATCC, Manassas, VA) was used for cell affinity studies. […] The supernatant was disposed, and the cell pellet was resuspended in a culture medium, and LNCaP cells (150,000 cells/well) were counted with a hemocytometer and seeded in poly-L-lysine-coated 24-well plates used in cell binding studies. The cells were then allowed to grow at 37 °C for 48 h. PC3-PIP cells provided by Professor Xiaoyuan Chen (Singapore) require additional Puromycin (2 µg/ml) in addition to the appealed culture conditions.

[4] = tested on: PC3-PIP tumor-bearing balb/c-nu mice; experiment: Biodistribution in PC3-PIP tumor model; format: in vivo; details: mean ± SD (n=5)
Procedure: All animal experiments were performed with the approval of the institutional animal ethics committee. Male NOD/SCID mice (5 − 6 weeks old) implanted with LNCaP cells were used for imaging and biodistribution experiments as previously described. The mice were imaged or used in biodistribution studies once the tumor grew to 8 − 10 mm in diameter over a period of 4 − 5 weeks. At the same time, male balb/c-nu mice (5 − 6 weeks old) implanted with PC3-PIP cells were used as an alternative tumor model for imaging and biodistribution experiments.
To conduct biodistribution studies, male mice bearing LNCaP or PC3-PIP tumors with an average body weight of approximately 20 ± 5 g and a tumor diameter of 8 − 10 mm were administered a bolus injection of 2.5 MBq of the corresponding radioligand via the tail vein. After 30, 60, and 120 min, the mice were anesthetized with isoflurane and subsequently euthanized by CO2 asphyxiation. Blood was drawn, and the organs of interest were promptly harvested, blotted dry, and weighed. The radioactivity of the collected mouse organs was measured and expressed as the percentage of the injected dose per gram of tissue (%ID/g). Each group consisted of at least five mice.

LNCaP tumors = experiment: Micro-PET/CT blocking experiment with 2-PMPA, LNCaP tumor model; format: in vivo, mice; details: 40 nmol 2-PMPA 30 min before radioligand, static scan 60 min later
Procedure: as §1
(§3) To evaluate the specificity of radioligands, blocking experiments were performed. In brief, 40 nmol of the PSMA inhibitor 2-PMPA was administered, followed by the injection of approximately 2.6 MBq of radioligands after 30 min. Then a static scan of micro-PET/CT was performed 60 min later.

PC3-PIP tumors [5] = experiment: Micro-PET/CT blocking experiment with 2-PMPA, PC3-PIP tumor model; format: in vivo, mice; details: identical methodology
Procedure: as §1, §3

[6] = tested on: LNCaP tumor-bearing NOD/SCID mice; details: mouse, in vivo
[7] = tested on: LNCaP tumor-bearing NOD/SCID mice; experiment: Biodistribution in LNCaP tumor model

With `O=C([O-])CN1CCN(CC(=O)[O-])CCN(CC(=O)NCCOCCOCCOCCOCCOCCOCCOCCOCCNC(=O)CN(CCCC[C@H](NC(=O)N[C@@H](CCC(=O)O)C(=O)O)C(=O)O)C(=O)C2c3ccccc3-c3ccccc32)CCN(CC(=O)[O-])CC1.[177Lu+3]` [[^177Lu]Lu-PP8-WD] as the compound, how does the “Tumor-to-background ratio in micro-SPECT/CT” value (PC3-PIP tumors [1]) read?
The value was “favorable tumor-to-background ratio for up to 168 h”.

For `O=C([O-])CN1CCN(CC(=O)[O-])CCN(CC(=O)NCCOCCOCCOCCOCCOCCOCCOCCOCCNC(=O)CN(CCCC[C@H](NC(=O)N[C@@H](CCC(=O)O)C(=O)O)C(=O)O)C(=O)C2c3ccccc3-c3ccccc32)CCN(CC(=O)[O-])CC1.[68Ga+3]` [[^68Ga]Ga-PP8-WD], which IC50 (PSMA) is on record?
The IC50 was 6.13 ± 0.79 nM.

And the “Radiochemical purity after incubation in PBS” value [2]?
The value was 97%.

What about the “Radiochemical purity after incubation in human serum” value [3] of the same compound?
Its value is 96.69 ± 0.21%.

What about the “Internalization in LNCaP cells” value (LNCaP cells) of the same compound?
Its value is 5.72 ± 0.95%.

And the “Uptake in LNCaP cells” value (LNCaP cells)?
Its value is 10.16 ± 1.87%.

And the Blood uptake ([4]; 30 min p.i.)?
Its Blood uptake is 5.2±0.77 %ID/g.

And the Bone uptake ([4]; 30 min p.i.)?
Its Bone uptake is 1.21±0.57 %ID/g.

What about the Brain uptake ([4]; 30 min p.i.) of the same compound?
The Brain uptake was 0.13±0.05 %ID/g.

And the Heart uptake ([4]; 30 min p.i.)?
The Heart uptake was 1.21±0.19 %ID/g.

And the Kidney uptake ([4]; 30 min p.i.)?
The Kidney uptake was 11.38±3.15 %ID/g.

What about the Liver uptake ([4]; 30 min p.i.) of the same compound?
Its Liver uptake is 1.11±0.10 %ID/g.

And the Lung uptake ([4]; 30 min p.i.)?
Its Lung uptake is 2.64±0.23 %ID/g.

What about the Muscle uptake ([4]; 30 min p.i.) of the same compound?
The Muscle uptake was 0.45±0.06 %ID/g.

What about the Salivary uptake ([4]; 30 min p.i.) of the same compound?
Its Salivary uptake is 1.23±0.17 %ID/g.

And the “Small int (small intestine) uptake” value ([4]; 30 min p.i.)?
Its value is 0.87±0.18 %ID/g.

What about the Spleen uptake ([4]; 30 min p.i.) of the same compound?
The Spleen uptake was 1.39±0.26 %ID/g.

What about the Stomach uptake ([4]; 30 min p.i.) of the same compound?
The Stomach uptake was 0.83±0.17 %ID/g.

And the Tumor uptake ([4]; 30 min p.i.)?
The Tumor uptake was 12.81±4.48 %ID/g.

What about the Blood uptake ([4]; 60 min p.i.) of the same compound?
Its Blood uptake is 3.89±0.18 %ID/g.

What about the Bone uptake ([4]; 60 min p.i.) of the same compound?
Its Bone uptake is 1.26±0.07 %ID/g.

What about the Brain uptake ([4]; 60 min p.i.) of the same compound?
Its Brain uptake is 0.12±0.02 %ID/g.

What about the Heart uptake ([4]; 60 min p.i.) of the same compound?
The Heart uptake was 1.09±0.12 %ID/g.

And the Kidney uptake ([4]; 60 min p.i.)?
Its Kidney uptake is 4.52±1.51 %ID/g.

What about the Liver uptake ([4]; 60 min p.i.) of the same compound?
Its Liver uptake is 1.24±0.16 %ID/g.

What about the Lung uptake ([4]; 60 min p.i.) of the same compound?
Its Lung uptake is 2.25±0.13 %ID/g.

What about the Muscle uptake ([4]; 60 min p.i.) of the same compound?
The Muscle uptake was 0.52±0.07 %ID/g.

What about the Salivary uptake ([4]; 60 min p.i.) of the same compound?
The Salivary uptake was 1.49±0.37 %ID/g.

What about the “Small int (small intestine) uptake” value ([4]; 60 min p.i.) of the same compound?
The value was 0.92±0.23 %ID/g.

And the Spleen uptake ([4]; 60 min p.i.)?
The Spleen uptake was 1.30±0.21 %ID/g.

And the Stomach uptake ([4]; 60 min p.i.)?
The Stomach uptake was 0.98±0.09 %ID/g.

And the Tumor uptake ([4]; 60 min p.i.)?
The Tumor uptake was 15.21 ± 3.33 %ID/g.

What about the Blood uptake ([4]; 120 min p.i.) of the same compound?
The Blood uptake was 3.12±0.48 %ID/g.

What about the Bone uptake ([4]; 120 min p.i.) of the same compound?
Its Bone uptake is 1.62±0.13 %ID/g.

What about the Brain uptake ([4]; 120 min p.i.) of the same compound?
Its Brain uptake is 0.13±0.03 %ID/g.

And the Heart uptake ([4]; 120 min p.i.)?
The Heart uptake was 0.94±0.16 %ID/g.

And the Kidney uptake ([4]; 120 min p.i.)?
The Kidney uptake was 2.74±0.38 %ID/g.

And the Liver uptake ([4]; 120 min p.i.)?
The Liver uptake was 1.38±0.19 %ID/g.

And the Lung uptake ([4]; 120 min p.i.)?
Its Lung uptake is 2.16±0.14 %ID/g.

And the Muscle uptake ([4]; 120 min p.i.)?
Its Muscle uptake is 0.43±0.11 %ID/g.

What about the Salivary uptake ([4]; 120 min p.i.) of the same compound?
Its Salivary uptake is 1.26±0.27 %ID/g.

What about the “Small int (small intestine) uptake” value ([4]; 120 min p.i.) of the same compound?
Its value is 0.89±0.27 %ID/g.

What about the Spleen uptake ([4]; 120 min p.i.) of the same compound?
The Spleen uptake was 0.96±0.14 %ID/g.

What about the Stomach uptake ([4]; 120 min p.i.) of the same compound?
The Stomach uptake was 0.79±0.08. %ID/g.

What about the Tumor uptake ([4]; 120 min p.i.) of the same compound?
Its Tumor uptake is 14.3±5.37 %ID/g.

What about the “Radioactivity upon blocking with 2-PMPA” value (LNCaP tumors) of the same compound?
The value was “substantially reduced radioactivity”.

And the “Outcome of blocking imaging with 2-PMPA” value (PC3-PIP tumors [5])?
The value was “in concordance with those observed in the LNCaP tumor model”.

And the “Renal uptake reduced by a factor compared to [68Ga]Ga-Flu-1” value [6]?
The value was 20.

And the “Renal uptake, fold less compared to [68Ga]Ga-Flu-1” value [6]?
The value was “fivefold”.

And the Tumor uptake ([6]; 0.5 h)?
The Tumor uptake was 16.18 ± 2.53 %ID/g.

What about the Tumor uptake ([6]; 1 h) of the same compound?
Its Tumor uptake is 18.64 ± 2.20 %ID/g.

And the Tumor uptake ([6]; 2 h)?
Its Tumor uptake is 17.12 ± 2.57 %ID/g.

What about the Tumor/Blood ratio ([7]; 30 min) of the same compound?
The Tumor/Blood ratio was 4.67±0.32.

What about the Tumor/Heart ratio ([7]; 30 min) of the same compound?
The Tumor/Heart ratio was 12.31±0.58.

And the Tumor/Kidney ratio ([7]; 30 min)?
Its Tumor/Kidney ratio is 0.63±0.11.

And the Tumor/Liver ratio ([7]; 30 min)?
Its Tumor/Liver ratio is 10.58±0.32.

And the Tumor/Salivary ratio ([7]; 30 min)?
The Tumor/Salivary ratio was 5.23±0.24.

What about the Tumor/Blood ratio ([7]; 60 min) of the same compound?
Its Tumor/Blood ratio is 5.31±0.54.

What about the Tumor/Heart ratio ([7]; 60 min) of the same compound?
Its Tumor/Heart ratio is 31.66±2.2.

What about the Tumor/Kidney ratio ([7]; 60 min) of the same compound?
The Tumor/Kidney ratio was 1.22±0.35.

And the Tumor/Liver ratio ([7]; 60 min)?
The Tumor/Liver ratio was 23.74±1.90.

And the Tumor/Salivary ratio ([7]; 60 min)?
The Tumor/Salivary ratio was 11.50±1.19.

What about the Tumor/Blood ratio ([7]; 120 min) of the same compound?
The Tumor/Blood ratio was 30.88±1.36.

What about the Tumor/Heart ratio ([7]; 120 min) of the same compound?
Its Tumor/Heart ratio is 75.85±3.6.

And the Tumor/Kidney ratio ([7]; 120 min)?
The Tumor/Kidney ratio was 2.68±0.22.

And the Tumor/Liver ratio ([7]; 120 min)?
Its Tumor/Liver ratio is 41.69±2.9.

What about the Tumor/Salivary ratio ([7]; 120 min) of the same compound?
Its Tumor/Salivary ratio is 45.05±2.56.
